One block for each compound: values may come before it. Activity calls are given as the source filed them.
Legend:
[1] = target: T1, RNA-binding protein pos-1 (Caenorhabditis elegans, UniProt G5EF15); experiment: disruptors of C. elegans POS-1 RNA interaction – biochemical, fluorescence polarization, dose response (AID 1964);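 note: purified POS-1 fused to maltose binding protein made in E. coli; potency of compounds blocking POS-1 binding to fluorescent RNA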
T1 sequence (G5EF15 whole entry): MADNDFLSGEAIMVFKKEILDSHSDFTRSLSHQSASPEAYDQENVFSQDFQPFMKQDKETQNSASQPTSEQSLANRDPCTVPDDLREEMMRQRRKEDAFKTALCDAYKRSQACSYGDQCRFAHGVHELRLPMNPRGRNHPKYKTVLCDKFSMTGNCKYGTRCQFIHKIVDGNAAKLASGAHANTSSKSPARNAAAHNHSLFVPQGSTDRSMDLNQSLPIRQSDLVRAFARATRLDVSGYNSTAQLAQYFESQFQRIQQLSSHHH

[2] = target: T2, Zinc finger protein mex-5 (Caenorhabditis elegans, UniProt Q9XUB2); experiment: potency of MEX-5 RNA-binding blockers – biochemical, C. elegans, fluorescence polarization, dose response (AID 1960)
T2 sequence (Q9XUB2 whole entry): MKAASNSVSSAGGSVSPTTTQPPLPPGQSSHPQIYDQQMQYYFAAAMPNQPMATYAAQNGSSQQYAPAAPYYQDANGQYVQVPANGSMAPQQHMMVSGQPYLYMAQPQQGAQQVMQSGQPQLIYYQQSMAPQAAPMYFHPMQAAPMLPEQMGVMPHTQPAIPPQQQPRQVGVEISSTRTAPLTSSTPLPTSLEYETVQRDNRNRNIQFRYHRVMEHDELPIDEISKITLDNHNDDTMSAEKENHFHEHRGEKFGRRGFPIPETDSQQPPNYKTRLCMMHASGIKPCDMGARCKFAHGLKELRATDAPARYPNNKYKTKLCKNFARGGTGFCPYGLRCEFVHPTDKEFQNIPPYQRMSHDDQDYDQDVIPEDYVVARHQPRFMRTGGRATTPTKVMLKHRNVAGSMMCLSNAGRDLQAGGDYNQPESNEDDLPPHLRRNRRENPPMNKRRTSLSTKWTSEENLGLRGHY

[3] = target: T3, Carboxy-terminal domain RNA polymerase II polypeptide A small phosphatase 1 (Homo sapiens, UniProt Q9GZU7); experiment: CTDSP1 inhibitors, concentration-response, biochemical, absorbance readout, ultra-high-throughput screen actives (AID 540297); assay type: functional
T3 sequence (Q9GZU7 whole entry): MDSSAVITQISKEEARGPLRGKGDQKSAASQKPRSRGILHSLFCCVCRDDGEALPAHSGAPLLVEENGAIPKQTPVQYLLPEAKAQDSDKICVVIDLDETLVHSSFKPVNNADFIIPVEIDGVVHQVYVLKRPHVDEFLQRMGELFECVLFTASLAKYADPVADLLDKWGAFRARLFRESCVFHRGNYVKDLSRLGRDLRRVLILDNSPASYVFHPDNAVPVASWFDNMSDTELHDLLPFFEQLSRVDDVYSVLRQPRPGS

[4] = target: T4, Caspase-6 (Homo sapiens, UniProt P55212); experiment: inhibition of CASP6 peptide cleavage – biochemical, VEID-R110 fluorescence, cherry-pick, dose response (AID 720632)
T4 sequence (P55212 whole entry): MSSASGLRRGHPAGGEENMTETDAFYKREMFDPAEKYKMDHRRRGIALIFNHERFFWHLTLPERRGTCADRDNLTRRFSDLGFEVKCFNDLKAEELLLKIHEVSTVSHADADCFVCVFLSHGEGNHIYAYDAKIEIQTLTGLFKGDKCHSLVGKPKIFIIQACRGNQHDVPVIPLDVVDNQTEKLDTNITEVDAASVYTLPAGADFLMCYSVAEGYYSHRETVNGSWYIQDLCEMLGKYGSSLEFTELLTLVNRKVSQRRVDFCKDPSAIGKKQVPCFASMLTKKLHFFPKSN

[5] = target: T5, Histone-lysine N-methyltransferase NSD2 (Homo sapiens, UniProt O96028); assay type: biochemical
T5 sequence (O96028 whole entry): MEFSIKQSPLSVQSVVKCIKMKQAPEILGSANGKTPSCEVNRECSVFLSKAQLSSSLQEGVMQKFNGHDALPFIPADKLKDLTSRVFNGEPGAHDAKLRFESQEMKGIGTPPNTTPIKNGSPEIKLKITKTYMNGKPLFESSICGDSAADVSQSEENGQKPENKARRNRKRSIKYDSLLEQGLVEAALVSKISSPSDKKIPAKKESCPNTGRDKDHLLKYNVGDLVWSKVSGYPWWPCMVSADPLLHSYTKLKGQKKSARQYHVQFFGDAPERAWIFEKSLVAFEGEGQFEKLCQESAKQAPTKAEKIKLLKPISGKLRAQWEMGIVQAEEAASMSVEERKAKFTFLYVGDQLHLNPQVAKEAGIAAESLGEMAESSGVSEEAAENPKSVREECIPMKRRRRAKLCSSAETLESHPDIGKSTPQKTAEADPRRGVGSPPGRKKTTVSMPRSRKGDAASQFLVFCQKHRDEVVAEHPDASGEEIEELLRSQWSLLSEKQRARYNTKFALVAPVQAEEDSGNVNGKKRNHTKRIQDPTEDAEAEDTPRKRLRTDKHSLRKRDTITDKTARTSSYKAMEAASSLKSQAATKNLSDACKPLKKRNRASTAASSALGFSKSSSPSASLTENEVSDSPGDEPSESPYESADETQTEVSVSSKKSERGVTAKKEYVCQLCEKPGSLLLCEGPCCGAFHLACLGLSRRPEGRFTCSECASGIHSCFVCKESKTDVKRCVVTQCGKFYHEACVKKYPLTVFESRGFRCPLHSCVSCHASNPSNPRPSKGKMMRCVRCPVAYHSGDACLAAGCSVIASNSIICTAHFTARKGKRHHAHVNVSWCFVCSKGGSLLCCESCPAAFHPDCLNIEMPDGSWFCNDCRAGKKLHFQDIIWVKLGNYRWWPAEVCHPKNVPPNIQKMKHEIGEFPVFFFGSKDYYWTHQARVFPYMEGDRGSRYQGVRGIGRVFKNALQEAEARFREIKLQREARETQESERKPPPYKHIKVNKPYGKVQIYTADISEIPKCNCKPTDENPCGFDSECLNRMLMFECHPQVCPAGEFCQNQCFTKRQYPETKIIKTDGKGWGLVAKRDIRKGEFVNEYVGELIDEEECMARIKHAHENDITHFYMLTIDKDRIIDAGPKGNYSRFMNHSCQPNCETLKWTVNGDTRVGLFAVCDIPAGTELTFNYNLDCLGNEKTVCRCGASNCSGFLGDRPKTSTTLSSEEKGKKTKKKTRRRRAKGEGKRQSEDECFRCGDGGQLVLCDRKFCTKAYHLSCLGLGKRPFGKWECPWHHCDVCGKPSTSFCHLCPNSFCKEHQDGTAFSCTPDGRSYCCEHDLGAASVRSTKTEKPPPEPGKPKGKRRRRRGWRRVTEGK

[6] = target: Caspase-7 (Homo sapiens, UniProt P55210); experiment: caspase-7 enzyme inhibition, selectivity check – biochemical, DEVD-R110 fluorescence, cherry-pick, selectivity assay for caspase-6 inhibitor project, dose response (AID 743295); assay type: functional
Caspase-7, sequence (P55210 24-198 limits assumed): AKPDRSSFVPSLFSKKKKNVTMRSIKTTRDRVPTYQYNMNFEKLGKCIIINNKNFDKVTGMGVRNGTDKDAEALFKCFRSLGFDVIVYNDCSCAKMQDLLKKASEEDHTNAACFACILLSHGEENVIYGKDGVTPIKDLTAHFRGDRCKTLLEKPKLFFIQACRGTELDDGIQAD
Caspase-7, sequence (P55210 207-303 limits assumed): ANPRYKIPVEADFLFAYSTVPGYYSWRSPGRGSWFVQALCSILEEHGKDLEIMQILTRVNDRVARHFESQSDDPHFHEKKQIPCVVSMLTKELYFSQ

[7] = target: T6, Caspase-3 (Homo sapiens, UniProt P42574); experiment: human caspase-3 protease activity blockade – biochemical, fluorescence, cherry-picked samples, selectivity assay for caspase-6 allosteric inhibitor project, dose response (AID 743291)
T6 sequence (P42574 whole entry): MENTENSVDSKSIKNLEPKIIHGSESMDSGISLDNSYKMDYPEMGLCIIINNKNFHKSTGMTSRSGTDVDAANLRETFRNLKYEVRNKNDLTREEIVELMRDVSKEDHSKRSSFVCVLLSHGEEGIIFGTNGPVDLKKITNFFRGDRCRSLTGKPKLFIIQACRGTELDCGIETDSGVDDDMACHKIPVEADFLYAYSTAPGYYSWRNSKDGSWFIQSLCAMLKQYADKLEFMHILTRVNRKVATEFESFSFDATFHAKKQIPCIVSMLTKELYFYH

[8] = reduction of Shn3 3'UTR-driven luciferase in osteoblasts – cell-based, Clone20 osteoblasts, firefly luciferase, cherry-picked, dose response (AID 624132); assay type: functional;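 note: firefly luciferase luminescence from reporter carrying the Shn3 3'UTR in osteoblasts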
[9] = loss of viability in HepG2 cells – cell-based, CellTiter-Glo, cherry-picked, cytotoxicity control for Shn3 inhibitor project, dose response (AID 624134); assay type: functional
[10] = non-specific 3'UTR reporter inhibition in Clone20-Shn3RL – cell-based, Renilla luciferase, cherry-picked, counter-screen for Shn3 inhibitor project, dose response (AID 624133); assay type: functional
[11] = blockers of HIV-1 envelope-mediated cell-cell fusion – cherry-pick, dose response (AID 652057); assay type: functional, cell-based
[12] = target: Galanin receptor type 3 (Homo sapiens, UniProt O60755); experiment: Fluorescence-based cell-based primary high throughput dose response assay to identify antagonists of the Galanin Receptor 3 (GalR3).; assay type: functional
Galanin receptor type 3, sequence (O60755 whole entry): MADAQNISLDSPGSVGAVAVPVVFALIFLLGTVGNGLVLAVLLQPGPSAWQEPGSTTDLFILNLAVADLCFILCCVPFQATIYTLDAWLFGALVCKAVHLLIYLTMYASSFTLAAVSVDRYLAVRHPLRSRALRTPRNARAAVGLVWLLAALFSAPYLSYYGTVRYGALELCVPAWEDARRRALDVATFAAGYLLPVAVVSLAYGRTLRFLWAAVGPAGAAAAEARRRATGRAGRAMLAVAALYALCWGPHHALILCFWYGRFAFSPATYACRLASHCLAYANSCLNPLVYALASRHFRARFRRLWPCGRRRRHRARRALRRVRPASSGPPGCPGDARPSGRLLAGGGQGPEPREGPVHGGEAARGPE

[13] = cells; assay type: functional, cell-based; conditions: HEK-CNG
[14] = blockers of HIV-1 ZM109 envelope-driven cell-cell fusion – HeLa effector, CEM target cells, luciferase, cherry-pick, dose response (AID 652058); assay type: functional, cell-based;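 note: luciferase signal from HIV-1 Env mediated cell-cell fusion of effector and target cells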
[15] = off-target signal loss in HeLa-CEM21 co-culture – HeLa F-luc CTL cells, cherry-picked, counter-screen for HIV-1 Env fusion inhibitor project, dose response (AID 652040); assay type: functional, cell-based;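 note: potency for signal decrease marking cytotoxic or nonspecific inhibition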
[16] = HIV-1 AD8 envelope cell-cell fusion blockers – cherry-pick, dose response (AID 652062); assay type: functional, cell-based;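 note: luciferase signal from cell-cell fusion driven by HIV-1 clade B AD8 Env; potency is for inhibitors of fusion seen as a drop in luminescence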
[17] = target: COUP transcription factor 2 (Homo sapiens, UniProt P24468); experiment: Luminescence-based cell-based high throughput dose response assay to identify inhibitors of COUP-TFII (NR2F2).; assay type: functional;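 note: HEK293 cells transiently cotransfected with COUP-TFII expression vector and reporter; luciferase reporter luminescence driven by COUP-TFII from the pX2-168 reporter plasmid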
COUP transcription factor 2, sequence (P24468 whole entry): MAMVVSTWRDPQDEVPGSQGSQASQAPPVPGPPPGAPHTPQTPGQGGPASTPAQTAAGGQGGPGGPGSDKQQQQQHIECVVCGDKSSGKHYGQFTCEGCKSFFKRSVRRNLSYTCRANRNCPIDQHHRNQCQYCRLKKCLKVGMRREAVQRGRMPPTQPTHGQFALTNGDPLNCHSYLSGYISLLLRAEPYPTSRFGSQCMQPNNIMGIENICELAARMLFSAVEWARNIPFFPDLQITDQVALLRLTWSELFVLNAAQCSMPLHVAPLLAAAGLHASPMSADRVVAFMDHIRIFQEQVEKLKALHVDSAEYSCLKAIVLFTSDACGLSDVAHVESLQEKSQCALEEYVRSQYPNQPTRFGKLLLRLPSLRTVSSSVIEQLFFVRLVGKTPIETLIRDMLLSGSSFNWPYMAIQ

[18] = tested on: HEK293; experiment: EBV LMP1 TES2 canonical NF-kB signalling blockers – cell-based, HEK293, luciferase, cherry-pick, dose response (AID 588343); assay type: functional; conditions: Homo sapiens
[19] = A549 cell cytotoxicity, dose response, cytotoxicity control, plate reader, cherry-pick, antagonist series (AID 743412); assay type: functional, cell-based
[20] = toxicity toward HepG2 liver cells – cell-based, plate reader, cherry-pick, antagonist series, cytotoxicity control, dose response (AID 743416); assay type: functional
[21] = blockers of bursicon-stimulated LGR2 cAMP reporter – cell-based, HEK293, CRE-luciferase reporter, cherry pick, set 2, dose response (AID 743343); assay type: functional;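 note: transfected cells were stimulated with diluted bursicon conditioned medium after compound addition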
[22] = blockade of melanocortin 4 receptor signaling – cell-based, plate reader, cherry pick, counter-screen for LGR2 antagonist project, dose response (AID 743444); assay type: functional;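 note: transfected HEK 293 cells stimulated with alpha-MSH peptide; potency of inhibitors of the alpha-MSH evoked signal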
[23] = viability loss in HEK293 cells – cell-based, plate reader, cherry-picked samples, cytotoxicity control, dose response (AID 743446); assay type: functional

- EC50 [1]: > 300 µM (not active)
- EC50 [2]: > 300 µM (not active)
- IC50 [3]: 4.61 µM (active)
- AC50 [4]: 1.47 µM (active)
- AC50 [5]: 10.6 µM (active)
- AC50 [6]: > 70 µM (inactive)
- AC50 [7]: 43.1 µM (active)
Structure (SMILES): Cc1cc(C=O)c(C)n1-c1ccc(Cl)c(C(=O)O)c1

Structure (SMILES): c1ccc(CNc2ncnc3ccccc23)cc1
- AC50 [8]: 1.5 µM (active)
- AC50 [9]: 5.24 µM (active)
- AC50 [10]: 18.9 µM (active)
- AC50 [11]: 10.7 µM (active)
- IC50 [12]: 1.25 µM (active)
- EC50 [13]: > 29.9 µM (inactive)
- AC50 [14]: 3.66 µM (active)
- AC50 [15]: 15 µM (active)
- AC50 [16]: 4.91 µM (active)
- IC50 [17]: 9.32 µM (active)

Structure (SMILES): O=C(Nc1ccc2c(c1)OCCO2)c1ccccn1
- AC50 [18]: 2.3 µM (active)
- AC50 [19]: 19.9 µM (active)
- AC50 [20]: 48.5 µM (active)
- AC50 [21]: 3.29 µM (active)
- AC50 [22]: 2.75 µM (active)
- AC50 [23]: 27.3 µM (active)
